Results from patent US20240101538A1, “PROTEIN-PROTEIN INTERACTION MODULATORS OF AURORA KINASE A AND THEIR USE IN THE PREVENTION AND/OR TREATMENT OF CANCER” (EBERHARD KARLS UNIVERSITÄT TÜBINGEN, priority 2020, published 2024).
Like-named read-outs stand apart in the source and are kept apart here.

Experiments:
NMP53^−/− cells [1] = experiment: Colony formation assay on NMP53^−/− cells; assay type: cell-based, murine; details: for minimal effective concentration: Mus musculus, 120 h, 5 days, read-out: EC (NMP53^−/−)
From the text: (§1) To evaluate the effect of small molecules equipped with R-spine interacting moieties, the inventors screened a focused library of proprietary p38a MAP-Kinase inhibitors which were equipped with R-spine interacting pharmacophores. To this end, the inventors utilized a screening system as developed in Dauch et al.^2 The screening system is based on colony formation assays of cell lines isolated from Nras-driven, Trp53-deficient murine HCCs, whose development is dependent on MYC (NMP53^−/− cells), as well as Nras-driven, Cdkn2a^ARF-deficient murine HCCs, which develop independently of MYC (NMCdkn2a^ARF−/− cells). Importantly, NMP53^−/− cells are sensitive to AURKA inhibitors, which induce a conformational shift in AURKA, whereas NMCdkn2a^ARF−/− are not sensitive to such compounds.
(§2) For Colony Formation Assays, cells were seeded at a density of 50 000 cells per 6 well and next day treated with a 2-fold dilution series of the indicated compounds or the highest corresponding DMSO concentration as control. After 5 days, the cells were fixed with a 10% formaldehyde solution for 30 min, washed once with water, stained with a 0.5% crystal violet solution for 30 min and washed twice with water. The compounds effective concentration (EC) was determined according to the lowest concentration in the dilution series, that inhibited cell growth substantially. The resulting benzamide containing hit structure 1, with a twofold selectivity towards NMP53^−/− cells (effective concentration on NMP53^−/− cells (EC): 2 μM, EC on Cdkn2a^ARF−/−: 4 μM, FIG. 1), served as the inventors' starting point for further compound development.

NMCdkn2a^ARF−/− cells = experiment: Colony formation assay on NMCdkn2a^ARF−/− cells; assay type: cell-based, murine; details: Mus musculus, 120 h, 5 days, read-out: EC (NMCdkn2a^ARF−/−)
From the text: as §1, §2

AURKA = AURKA (Homo sapiens (Human), UniProt O14965); experiment: Binding to AURKA
NMP53^−/− cells [2] = experiment: Immunofluorescence staining (α-tubulin, DAPI) of normal and abnormal spindles; assay type: cell-based, murine; details: different treatment times
Experimental: The AURKA compounds of this invention trigger the formation of abnormal (multipolar and monopolar) spindles a few minutes after application. A. Representative images of immunofluorescence stainings with antibodies against α-tubulin (light grey) and DAPI (surrounded by a dashed white line) of a tumor cell line (NMP53^−/− cells) treated for 24 hours with compound 3a [N-(2-fluoro-5-((4-(1-methyl-1H-pyrazole-4-yl)benzyl)amino)phenyl)-3-(furan-2-yl)-propanamide] or DMSO as a control. B. Quantification of normal and abnormal spindles of immunofluorescence staining with antibodies against α-tubulin and DAPI of a tumor cell line (NMP53^−/− cells) after different treatment times with compound 3a according to this invention or DMSO as a control.
The AURKA compounds of this invention trigger the formation of abnormal (e.g. multipolar and/or monopolar) spindles in tumor cell lines (NMP53^−/− cells) (FIG. 8).

[3] = colony formation assay, lowest concentration of 2-fold dilution series that inhibited cell growth substantially
[4] = lowest concentration of 2-fold dilution series that inhibited cell growth substantially

Sequence of AURKA (O14965 whole entry): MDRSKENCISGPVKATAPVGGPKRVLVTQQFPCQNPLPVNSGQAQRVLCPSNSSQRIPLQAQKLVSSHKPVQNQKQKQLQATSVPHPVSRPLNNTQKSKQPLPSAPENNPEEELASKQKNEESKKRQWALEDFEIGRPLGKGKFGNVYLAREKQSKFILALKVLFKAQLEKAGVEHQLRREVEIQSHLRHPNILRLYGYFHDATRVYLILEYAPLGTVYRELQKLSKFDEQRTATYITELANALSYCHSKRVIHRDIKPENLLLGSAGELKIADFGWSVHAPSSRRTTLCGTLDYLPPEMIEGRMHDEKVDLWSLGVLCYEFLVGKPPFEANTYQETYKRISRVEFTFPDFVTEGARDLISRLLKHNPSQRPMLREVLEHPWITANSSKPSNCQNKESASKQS

For `O=C(CCc1ccco1)Nc1cc(NCc2ccc(-c3cn[nH]c3)cc2)ccc1F` [Compound 2c, N-(5-((4-(1H-pyrazole-4-yl)benzyl)amino)-2-fluorophenyl)-3-(furan-2-yl)propanamide], the “higher cellular activity compared to the initial hit 1” value (NMP53^−/− cells [1]; EC on NMP53^−/− cells) was “up to 16 fold”, the “increased efficacy compared to compound 2a” value (NMP53^−/− cells [1]; EC on NMP53^−/− cells) was 4 fold and the minimal effective concentration (NMP53^−/− cells [1]; [3]) was 0.125 µM. For the same molecule, the minimal effective concentration (NMP53^−/− cells [1]; colony formation assay) was 0.125 µM, the “selectivity for NMP53^−/− cells” value (NMP53^−/− cells [1]; NMP53^−/− versus NMCdkn2a^ARF−/− cells, colony formation assay) was “up to 8 fold” and the minimal effective concentration (NMCdkn2a^ARF−/− cells; [4]) was 1 µM. The minimal effective concentration (NMCdkn2a^ARF−/− cells) was > 1 µM and the “binding to AURKA” value (AURKA) was “strong binding”.

With `Cn1cc(-c2ccc(CNc3ccc(F)c(NC(=O)CCc4ccco4)c3)cc2)cn1` [Compound 3a, N-(2-fluoro-5-((4-(1-methyl-1H-pyrazole-4-yl)benzyl)amino)phenyl)-3-(furan-2-yl)propanamide] the minimal effective concentration (NMP53^−/− cells [1]; [3]) was 0.031 µM, the minimal effective concentration (NMP53^−/− cells [1]; colony formation assay) was 0.031 µM and the minimal effective concentration (NMCdkn2a^ARF−/− cells; [4]) was 0.25 to 0.5 µM. For the same molecule, the minimal effective concentration (NMCdkn2a^ARF−/− cells) was 0.25 to 0.5 µM and the “formation of abnormal spindles” value (NMP53^−/− cells [2]) was “induce the formation of abnormal spindles within a few minutes”.
